{
  "source": "paper PMC12006790",
  "about": "(Synthetic Biology, 2025)",
  "key": {"HjCel7A": {"molecular_target": "T1, HjCel7A (Trichoderma reesei, UniProt P62694)", "T1 sequence (P62694 18-513)": "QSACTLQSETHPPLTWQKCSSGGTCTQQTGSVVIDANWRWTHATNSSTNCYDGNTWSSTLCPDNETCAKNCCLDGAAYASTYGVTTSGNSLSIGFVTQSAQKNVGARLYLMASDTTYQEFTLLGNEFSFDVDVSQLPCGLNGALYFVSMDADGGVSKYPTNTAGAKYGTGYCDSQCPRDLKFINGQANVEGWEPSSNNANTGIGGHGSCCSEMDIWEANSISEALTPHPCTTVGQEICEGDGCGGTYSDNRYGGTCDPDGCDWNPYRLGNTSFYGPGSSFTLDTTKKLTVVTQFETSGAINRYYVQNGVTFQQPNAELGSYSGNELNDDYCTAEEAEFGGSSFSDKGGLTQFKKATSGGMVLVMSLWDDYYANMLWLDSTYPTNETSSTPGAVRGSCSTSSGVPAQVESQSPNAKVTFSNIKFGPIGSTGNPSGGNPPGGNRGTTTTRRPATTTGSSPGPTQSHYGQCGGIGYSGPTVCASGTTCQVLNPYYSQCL", "assay": "p-nitrophenol release, […] nm", "type": "biochemical", "details": "2 mM substrate, PBS pH 7.4, 40 °C, 12 h"}, "CelEdx16": {"molecular_target": "T2, CelEdx16 (Clostridiaceae bacterium AN-C16-KBRB, UniProt E0A3Q5)", "T2 sequence (E0A3Q5 1-367)": "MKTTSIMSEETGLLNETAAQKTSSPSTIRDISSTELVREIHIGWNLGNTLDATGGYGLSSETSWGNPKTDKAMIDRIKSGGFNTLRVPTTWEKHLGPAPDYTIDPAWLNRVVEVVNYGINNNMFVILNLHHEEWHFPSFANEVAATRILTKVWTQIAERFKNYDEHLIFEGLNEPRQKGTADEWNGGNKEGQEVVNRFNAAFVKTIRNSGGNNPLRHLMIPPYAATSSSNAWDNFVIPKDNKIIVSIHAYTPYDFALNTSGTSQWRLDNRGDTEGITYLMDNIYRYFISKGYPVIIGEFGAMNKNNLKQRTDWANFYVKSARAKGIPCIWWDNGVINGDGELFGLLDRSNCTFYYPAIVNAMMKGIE", "assay": "p-nitrophenol release, […] nm", "type": "biochemical", "details": "2 mM substrate, PBS pH 7.4, 40 °C, 12 h"}},
  "data": [
    {"smiles": "O=[N+]([O-])c1ccc(O[C@@H]2O[C@H](CO)[C@@H](O[C@@H]3O[C@H](CO)[C@@H](O)[C@H](O)[C@H]3O)[C@H](O)[C@H]2O)cc1", "note": "[p-nitrophenyl β-D-cellobioside]", "values": [
      {"measurement": "p-nitrophenol release, 405 nm; cell-free CB-biosensor", "setting": "HjCel7A", "result": "pNP assay detected significant signals for CelEdx16 and HjCel7A (CBHI)"},
      {"measurement": "p-nitrophenol release, 405 nm; cell-free CB-biosensor", "setting": "CelEdx16", "result": "pNP assay detected significant signals for CelEdx16 and HjCel7A (CBHI)"}
    ]}
  ]
}
